Data taken from patent publication US20050009772A1, “Methods and compositions for the treatment of glaucoma and other retinal diseases” (The Regents of the University of California, priority 2003, published 2005).
“Also recorded” adds a separate entry of the source.

Key:
[1] = test system: HSP72; assay: Western blot for HSP72 in enriched RGC fraction after systemic administration of GGA (Experiment 1); format: in vivo, rat; details: GGA 200 mg/kg co-administered with quercetin 4 mg/kg daily i.p., 7 days
Experimental: Experiment 1 was performed to evaluate the expression of HSP72 and HSC70 in RGCs after systemic administration of GGA with Western blot analysis and immunohistochemistry. For Western blotting, twelve rats were equally divided into 6 groups. Three groups of animals were given intraperitoneal injections of GGA 200 mg/kg daily and were euthanized after 1-, 3- or 7 days of administration of GGA. Three control groups were intraperitoneally administered 1) saline-vehicle daily for 7 days; 2) GGA with 4 mg/kg of quercetin (Sigma, St. Louis, Mo.) daily for 7 days; and 3) untreated animals. Enriched RGC fraction was harvested from 2 retinas of each group and used for Western blot analysis. The same experiment for isolation of RGCs and Western blotting was repeated with the other 2 retinas-from each group.
A solution of 80 mg/mL GGA was prepared in saline (Balanced salt solution; Alcon Laboratories, Inc., Fort Worth, Tex.) and emulsified for one hour in an ultrasonic generator (Branson Ultrasonic Corp., Danbury, Conn.) immediately before administration. Intraperitoneal injections of GGA were given at a dose of 200 mg/kg. Saline-vehicle was prepared and administered in the same fashion in vehicle-treated control groups.
A previously described method was modified to partially purify RGCs from other retinal cells in rat retinas.38 Briefly, two dissected rat retinas from each subgroup were washed in 2.5 ml of calcium- and magnesium-free phosphate buffered saline (PBS) at pH 7.4, and incubated in 1.25 ml of PBS containing 0.5 mg/ml trypsin and 0.01% deoxyribonuclease for 15 minutes at 37° C. This was followed by washing the retinas twice in 2.5 ml of minimal essential medium (MEM) containing 10% (vol/vol) fetal bovine serum. The retinas were subsequently washed in 2.5 ml of MEM twice and dissociated in 3 ml of MEM. The cell suspension was then mixed with 1.5 ml of 30% metrizamide (ICN Biomedicals, Inc., Aurora, Ohio) in MEM to a final concentration of 10 metrizamide. This mixture was then overlaid with 5% metrizamide in MEM, and the gradient was centrifuged at 4500 rpm (HB-4; Sorvall Instruments, Newtown, Conn.) for 25 minutes at 4° C. The cells in the 5% to 10% interface were collected. and washed in 25 ml of cold MEM. The washed cells were pelleted by centrifugation at 250×g for 10 minutes (Juan 3000C centrifuge, Winchester, Va.). The cells were then resuspended in 400 μl of MEM buffer, and the protein concentration in the cell suspension was measured with a bicinchoninic acid (BCA) protein assay kit (Pierce, Rockford, Ill.).
Western blot analysis was performed according to the procedure described by Towbin et al.39 Aliquots of 20 μg of protein from enriched RGCs were separated on a 12% SDS-polyacrylamide minigel (Bio-Rad, Hercules, Calif.) and transferred to the membrane (Immunobilon-P; Millipore Corporation, Bedford, Mass.). The membrane was blocked by incubation in 0.1% Tween-20 in 100 mM Tris-buffered saline containing 10% nonfat dried milk for 1 hour. The membranes were incubated with mouse monoclonal antibody against HSP72 (1:1000; StressGen Biotechnologies Corp., Victoria, British Columbia, Canada) or with rat monoclonal antibody against HSC70 (1:1000; StressGen) overnight and then biotinylated rabbit anti-mouse secondary antibody (1:500; Amersham Pharmacia Biotech, Inc., Piscataway, N.J.) or biotinylated goat anti-rat secondary antibody (1:500; Amersham Pharmacia) for 1 hour. This was followed by incubation with streptavidin-conjugated horseradish peroxidase (1:2000; Amersham Pharmacia) for 40 minutes. The immunoreactive bands were detected by chemiluminescence with an enhanced chemiluminescence Western blot reagent (Amersham Pharmacia).

[2] = test system: TUNEL positive cells in the RGCL; assay: TUNEL analysis of RGCL after 1 week of IOP elevation (Experiment 3); format: in vivo, rat; details: elevated IOP retinas, 1 week; quercetin = co-administered with GGA
Experimental: Experiment 3 was performed to investigate the inhibition of apoptosis with GGA administration after 1 week of IOP elevation (n=56).
Rats were anesthetized with intramuscular injections of 0.8 ml/kg of the anesthetic cocktail described above. […] At the end of the procedure, Tobrex ophthalmic ointment (tobramycin 0.3%; Alcon, Fort Worth, Tex.) was applied topically. Five days after intracameral injection of India ink, a dark band at the limbus was noted due to the aggregation of carbon particles in the trabecular meshwork.38 After anesthesia, approximately 200 laser burns were delivered ab externo to the pigmented trabecular band at laser settings of 200 μm diameter, 200 mW power and 0.2 seconds duration. Three weeks after the first laser treatment, another trabecular laser photocoagulation was performed without further injection of ink.
Four-μm thick paraffin embedded sections along the vertical meridian of the optic nerve head were collected and a minimum of 6 retinal sections (8 μm apart) per eyeball was used for counting the number of TUNEL positive cells in the RGCL. Only full length and undamaged retinal sections without oblique orientation were used. The procedures described in the ApopTag Peroxidase In Situ Apoptosis Detection Kit (Intergen Co., Purchase, N.Y.) were followed and diaminobenzidine (Sigma, St. Louis, Mo.) was used as a color substrate. Counting was performed by two masked investigators with light microscopy, and averaged.

[3] = test system: HSP72; assay: Quantitative immunohistochemical analysis of HSP72 in the RGCL after 1 week of IOP elevation (Experiment 3); format: in vivo, rat; details: quercetin = co-administered with GGA
Experimental: TdT-mediated biotin-dUTP nick end labeling (TUNEL) and immunohistochemical analysis for HSP72 and HSC70 were performed.
Animals were deeply anesthetized with intramuscular injections of 0.8 ml/kg of a cocktail of 5 ml ketamine (100 mg/ml), 2.5 ml xylazine (20 mg/ml), 1.0 ml acepromazine (10 mg/ml), and 1.5 ml normal saline. Then they were transcardially perfused with 4% paraformaldehyde in 0.1 M phosphate buffer. The enucleated eyeballs were immersed in fixative for 1 hour, bisected and post-fixed overnight. The eyes were embedded in paraffin and sectioned at a four-μm thickness along the vertical meridian through the optic nerve head. After deparaffinization and hydration, a species-specific Vectastain ABC kit (Vector Laboratories, Inc., Burlingame, Calif.) was chosen to match the species of primary antibody and the manufacturer's procedures were followed. The tissue sections were incubated with blocking serum solution in PBS for 1 hour. This was followed by incubation with primary antibody at 4° C overnight. The antibodies were mouse monoclonal antibody against HSP72 (1:500; StressGen Biotechnologies Corp., Victoria, British Columbia, Canada), goat polyclonal antibody against HSP72 (1:1000; Santa Cruz Biotechnology, Inc., Santa Cruz, Calif.) or rat monoclonal antibody against HSC70 (1:200; StressGen). Antigen-antibody complexes were detected by an avidin-biotin-peroxidase technique (Vectastain ABC Kit; Vector Laboratories). Diaminobenzidine (DAB) was used to produce a brown color in the target tissue and the slides were permanently mounted. As a negative control, alternate retinal section was incubated with blocking solution by replacing the primary antibody or with anti-rabbit secondary antibody by replacing the original secondary antibody.
Immunohistochemical staining was analyzed quantitatively with a computer-assisted image processing unit (Image-Pro Plus software, Media Cybernetics, Silver Spring, Md.) and the “count-measure” function. Images of immuno-stained sections were captured with a digital camera (Cool snap, RS Photometric, Tucson, Ariz.) attached to the microscope (Axio plan, Carl Zeiss, Oberkochen, Germany) at 630× magnification under oil immersion. The system was calibrated according to the supplier's manual before the analysis. For each digital image, all individual cells in the RGCL were marked by a masked examiner and the optical density of each cell was measured. The relative intensities of cells in the RGCL were measured and averaged (±SEM) to yield a single value representing one retina.

[4] = test system: retinal ganglion cells (RGCs); assay: Density of DTMR-labeled RGCs in rat glaucoma model (Experiment 2); format: in vivo; details: retinas with IOP elevation, 5 weeks; quercetin = co-administered with GGA
Experimental: GGA was then given twice a week at the same dose until euthanasia. Sustained elevation of intraocular pressure (IOP) was maintained by performing trabecular laser photocoagulation three weeks after the first photocoagulation. […] IOP and body weight were measured once a week. […] Rats were anesthetized with intramuscular injections of 0.8 ml/kg of the anesthetic cocktail described above. A previously published procedure was modified to produce chronic moderately elevated IOP unilaterally, while the untreated contralateral eye served as the comparative control.40 Animals were injected intracamerally with 10 μl of 35% India ink (Becton Dickinson, Cockeysville, Md.) in 0.01 M PBS after removing a similar volume of aqueous. At the end of the procedure, Tobrex ophthalmic ointment (tobramycin 0.3%; Alcon, Fort Worth, Tex.) was applied topically. Five days after intracameral injection of India ink, a dark band at the limbus was noted due to the aggregation of carbon particles in the trabecular meshwork.38 After anesthesia, approximately 200 laser burns were delivered ab externo to the pigmented trabecular band at laser settings of 200 μm diameter, 200 mW power and 0.2 seconds duration. Three weeks after the first laser treatment, another trabecular laser photocoagulation was performed without further injection of ink. […] A cross section of the optic nerve was made with the needle knife through the opening of the optic nerve sheath, with care not to damage the adjacent blood supply. DTMR crystals were applied to the proximal cut surface of the optic nerve to label RGCs by fast retrograde axonal transport. After euthanasia and enucleation, the retinas were dissected and flattened with four radial cuts (superotemporal, inferotemporal, superonasal, and inferonasal). They were placed with vitreal side up on glass slides, dried in the dark at room temperature overnight and mounted. The retinas were examined with a fluorescence microscope (Axioplan; Carl Zeiss, Oberkochen, Germany) equipped with a filter that permits visualization of rhodamine fluorescence (excitation filter BP 546, barrier filter LP590; Carl Zeiss). The counting of RGCs was conducted by 2 examiners in a masked fashion. […] Each rectangular area measured 0.475 mm×0.362 mm and the total counted area corresponded to approximately 3.1% of each total retinal area. Data are expressed as number of RGCs per mm2.

[5] = test system: retinal ganglion cells; assay: 2DG administration in the animal model of glaucoma; format: in vivo; details: animal model of glaucoma employed herein
Experimental: Lan et al., NeuroReport 14:2369-72 (2003). In the hands of the, present inventors, however, 2DG administration was ineffective in protecting retinal ganglion cells in the animal model of glaucoma employed herein. Thus, confirmation of efficacy in a relevant animal model is required before any actual conclusions can be drawn.
Rats were anesthetized with intramuscular injections of 0.8 ml/kg of the anesthetic cocktail described above. A previously published procedure was modified to produce chronic moderately elevated IOP unilaterally, while the untreated contralateral eye served as the comparative control.40 Animals were injected intracamerally with 10 μl of 35% India ink (Becton Dickinson, Cockeysville, Md.) in 0.01 M PBS after removing a similar volume of aqueous. At the end of the procedure, Tobrex ophthalmic ointment (tobramycin 0.3%; Alcon, Fort Worth, Tex.) was applied topically. Five days after intracameral injection of India ink, a dark band at the limbus was noted due to the aggregation of carbon particles in the trabecular meshwork.38 After anesthesia, approximately 200 laser burns were delivered ab externo to the pigmented trabecular band at laser settings of 200 μm diameter, 200 mW power and 0.2 seconds duration. Three weeks after the first laser treatment, another trabecular laser photocoagulation was performed without further injection of ink.

SMILES | expression of HSP72 in RGCs (immunoblot) [1] | effect on number of TUNEL positive cells (in words) [2] | HSP72 expression (immunoreactive intensity) in the RGCL ([3]; control (normal IOP) retinas vs vehicle-alone controls) | HSP72 expression (immunoreactive intensity) in the RGCL ([3]; retinas with IOP elevation, 1 week) | effect on density of DTMR-labeled RGCs (in words) [4] | protection of retinal ganglion cells [5]
O=c1c(O)c(-c2ccc(O)c(O)c2)oc2cc(O)cc(O)c12 [quercetin] | inhibited | reversed | abolished; also recorded: diminished | significantly reduced; also recorded: abolished | abolished the protective effect | 
OCC1OC(O)CC(O)C1O [2DG, 2-deoxy-D-gluycose] |  |  |  |  |  | ineffective
